Assay results from paper PMC8213057, “Targeting ALK2: An Open Science Approach to Developing Therapeutics for the Treatment of Diffuse Intrinsic Pontine Glioma” (Journal of Medicinal Chemistry, 2020).

Columns and labels:
ASK1/MAP3K5 = molecular target: T1, ASK1/MAP3K5 (Homo sapiens, UniProt Q99683); conditions: 1 μM; Run 1, Run 2
T1 sequence (Q99683 1-1374): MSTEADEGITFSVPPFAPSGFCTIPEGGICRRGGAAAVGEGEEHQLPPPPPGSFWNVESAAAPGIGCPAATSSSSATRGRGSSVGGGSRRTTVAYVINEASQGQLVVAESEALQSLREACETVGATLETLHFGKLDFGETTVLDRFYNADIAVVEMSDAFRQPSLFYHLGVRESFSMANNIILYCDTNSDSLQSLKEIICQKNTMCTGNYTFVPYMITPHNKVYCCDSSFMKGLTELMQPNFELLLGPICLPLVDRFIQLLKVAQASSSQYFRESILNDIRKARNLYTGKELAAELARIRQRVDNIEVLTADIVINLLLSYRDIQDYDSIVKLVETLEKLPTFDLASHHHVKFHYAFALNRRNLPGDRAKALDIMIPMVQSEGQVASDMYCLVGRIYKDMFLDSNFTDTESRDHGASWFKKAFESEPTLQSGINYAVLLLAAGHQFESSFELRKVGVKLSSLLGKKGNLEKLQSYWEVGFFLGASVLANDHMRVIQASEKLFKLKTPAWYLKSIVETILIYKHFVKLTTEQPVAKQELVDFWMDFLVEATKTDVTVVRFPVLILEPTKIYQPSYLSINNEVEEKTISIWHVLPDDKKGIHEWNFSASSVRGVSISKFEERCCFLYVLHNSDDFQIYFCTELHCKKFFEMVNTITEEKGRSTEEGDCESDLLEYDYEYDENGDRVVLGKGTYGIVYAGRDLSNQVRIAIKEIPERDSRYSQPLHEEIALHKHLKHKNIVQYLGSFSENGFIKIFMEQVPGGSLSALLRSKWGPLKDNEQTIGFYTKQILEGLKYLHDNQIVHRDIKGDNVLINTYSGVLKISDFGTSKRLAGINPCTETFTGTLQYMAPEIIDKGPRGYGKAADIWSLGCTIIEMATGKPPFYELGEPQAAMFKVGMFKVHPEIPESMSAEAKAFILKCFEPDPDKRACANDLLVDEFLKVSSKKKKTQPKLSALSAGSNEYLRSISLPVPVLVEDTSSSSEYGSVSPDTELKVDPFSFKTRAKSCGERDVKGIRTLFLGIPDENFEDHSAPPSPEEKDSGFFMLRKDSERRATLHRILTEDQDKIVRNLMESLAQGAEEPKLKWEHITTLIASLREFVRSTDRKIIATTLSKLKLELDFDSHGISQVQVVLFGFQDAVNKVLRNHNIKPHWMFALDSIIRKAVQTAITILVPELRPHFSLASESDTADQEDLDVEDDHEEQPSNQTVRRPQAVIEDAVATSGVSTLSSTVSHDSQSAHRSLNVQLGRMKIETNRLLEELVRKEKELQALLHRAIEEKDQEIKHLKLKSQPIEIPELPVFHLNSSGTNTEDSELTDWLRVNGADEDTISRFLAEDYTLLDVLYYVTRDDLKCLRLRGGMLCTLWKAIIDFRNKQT

DYRK4 = molecular target: T2, DYRK4 (Homo sapiens, UniProt Q9NR20); conditions: 1 μM; Run 1, Run 2
T2 sequence (Q9NR20 1-520): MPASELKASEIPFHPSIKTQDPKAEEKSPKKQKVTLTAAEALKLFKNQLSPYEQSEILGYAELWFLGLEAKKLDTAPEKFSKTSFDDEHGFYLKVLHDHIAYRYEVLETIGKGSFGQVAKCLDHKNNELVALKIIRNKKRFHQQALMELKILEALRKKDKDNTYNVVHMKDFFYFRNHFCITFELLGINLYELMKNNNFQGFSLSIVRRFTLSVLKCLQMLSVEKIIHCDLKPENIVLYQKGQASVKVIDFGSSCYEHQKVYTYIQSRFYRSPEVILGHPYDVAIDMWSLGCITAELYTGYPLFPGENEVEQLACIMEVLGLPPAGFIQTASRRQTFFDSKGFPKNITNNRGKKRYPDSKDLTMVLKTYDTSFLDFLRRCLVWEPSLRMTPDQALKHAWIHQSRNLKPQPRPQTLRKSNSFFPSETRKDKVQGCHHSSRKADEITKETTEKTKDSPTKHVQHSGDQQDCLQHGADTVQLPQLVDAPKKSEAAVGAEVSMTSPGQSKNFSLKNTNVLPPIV

EPHA1 = molecular target: T3, EPHA1 (Homo sapiens, UniProt P21709); conditions: 1 μM; Run 1, Run 2
T3 sequence (P21709 26-976): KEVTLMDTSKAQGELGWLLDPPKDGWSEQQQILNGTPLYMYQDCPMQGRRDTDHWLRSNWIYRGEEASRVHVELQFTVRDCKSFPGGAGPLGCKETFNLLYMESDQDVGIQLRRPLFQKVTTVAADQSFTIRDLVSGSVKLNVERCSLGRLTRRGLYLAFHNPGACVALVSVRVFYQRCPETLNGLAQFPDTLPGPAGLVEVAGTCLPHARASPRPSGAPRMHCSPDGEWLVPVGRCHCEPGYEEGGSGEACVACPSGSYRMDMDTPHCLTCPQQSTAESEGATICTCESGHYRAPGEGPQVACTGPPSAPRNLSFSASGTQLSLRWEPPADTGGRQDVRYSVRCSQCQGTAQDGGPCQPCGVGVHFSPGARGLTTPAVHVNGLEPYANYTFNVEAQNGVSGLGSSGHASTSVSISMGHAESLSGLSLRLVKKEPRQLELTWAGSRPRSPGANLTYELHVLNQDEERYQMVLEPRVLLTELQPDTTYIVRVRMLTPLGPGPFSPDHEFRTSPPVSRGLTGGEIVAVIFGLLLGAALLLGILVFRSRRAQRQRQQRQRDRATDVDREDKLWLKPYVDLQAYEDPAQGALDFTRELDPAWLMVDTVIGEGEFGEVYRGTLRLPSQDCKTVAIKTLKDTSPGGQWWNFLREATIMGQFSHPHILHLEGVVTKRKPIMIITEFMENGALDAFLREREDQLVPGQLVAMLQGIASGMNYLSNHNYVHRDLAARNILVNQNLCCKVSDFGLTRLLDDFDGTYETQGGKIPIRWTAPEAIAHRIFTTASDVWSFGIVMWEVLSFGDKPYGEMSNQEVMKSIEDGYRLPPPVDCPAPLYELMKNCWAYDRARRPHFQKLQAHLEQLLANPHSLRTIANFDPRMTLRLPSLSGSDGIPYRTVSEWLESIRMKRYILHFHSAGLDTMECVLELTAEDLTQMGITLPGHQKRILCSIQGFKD

PAK6 = PAK6 (Homo sapiens, UniProt Q9NQU5); conditions: 1 μM; Run 1, Run 2
Chain of PAK6 (Q9NQU5 whole entry): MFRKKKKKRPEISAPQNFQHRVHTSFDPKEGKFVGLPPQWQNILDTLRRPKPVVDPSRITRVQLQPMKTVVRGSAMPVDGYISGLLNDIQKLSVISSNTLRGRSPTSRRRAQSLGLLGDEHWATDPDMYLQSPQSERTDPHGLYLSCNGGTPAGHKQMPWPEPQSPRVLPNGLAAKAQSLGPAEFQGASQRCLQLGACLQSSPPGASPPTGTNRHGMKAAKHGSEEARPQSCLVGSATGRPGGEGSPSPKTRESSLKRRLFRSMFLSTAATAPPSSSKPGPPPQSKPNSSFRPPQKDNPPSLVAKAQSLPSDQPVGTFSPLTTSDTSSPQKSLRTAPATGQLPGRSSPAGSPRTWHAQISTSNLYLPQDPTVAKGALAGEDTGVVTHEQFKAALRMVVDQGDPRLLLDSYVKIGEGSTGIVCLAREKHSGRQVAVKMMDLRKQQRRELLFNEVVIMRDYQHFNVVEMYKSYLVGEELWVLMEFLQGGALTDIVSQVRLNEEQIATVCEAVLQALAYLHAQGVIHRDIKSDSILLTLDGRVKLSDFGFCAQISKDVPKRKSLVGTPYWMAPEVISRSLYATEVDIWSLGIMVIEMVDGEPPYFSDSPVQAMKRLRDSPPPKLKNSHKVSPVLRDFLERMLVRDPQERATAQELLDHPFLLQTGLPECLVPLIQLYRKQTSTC

JNK1 = JNK1 (Homo sapiens, UniProt P45983); test: biochemical; conditions: read-out: % enzyme activity, 1 μM; Run 1, Run 2
Chain of JNK1 (P45983 whole entry): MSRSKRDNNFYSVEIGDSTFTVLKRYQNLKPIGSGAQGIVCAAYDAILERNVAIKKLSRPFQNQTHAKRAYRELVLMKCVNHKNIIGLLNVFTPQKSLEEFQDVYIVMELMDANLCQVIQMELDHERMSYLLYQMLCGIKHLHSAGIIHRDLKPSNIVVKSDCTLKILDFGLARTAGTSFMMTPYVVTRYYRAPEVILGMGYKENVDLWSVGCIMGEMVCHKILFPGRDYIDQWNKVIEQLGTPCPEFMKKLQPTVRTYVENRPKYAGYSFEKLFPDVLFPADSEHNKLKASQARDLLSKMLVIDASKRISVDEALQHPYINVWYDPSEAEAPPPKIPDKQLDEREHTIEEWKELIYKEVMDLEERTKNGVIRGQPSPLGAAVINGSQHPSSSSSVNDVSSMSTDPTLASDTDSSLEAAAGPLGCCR

SMILES | % enzyme activity (ASK1/MAP3K5) | % enzyme activity (DYRK4) | % enzyme activity (EPHA1) | % enzyme activity (PAK6) | remaining activity at 1 µM (JNK1)
COc1cc(-c2cncc(-c3ccc(N4C[C@@H](C)N(C)[C@@H](C)C4)cc3)c2C)cc(F)c1C(N)=O [Compound 26c, 2-Fluoro-6-methoxy-4-(4-methyl-5-(4-((3R,5S)-3,4,5-trimethylpiperazin-1-yl)phenyl)pyridin-3-yl)benzamide] | 96.09% | 100.24% | 89.93% | 95.67% | 86.9%
COc1cc(-c2cncc(-c3ccc(N4CCN(C)CC4)cc3)c2C)cc(F)c1C(N)=O [Compound 26a, 2-Fluoro-6-methoxy-4-(4-methyl-5-(4-(4-methylpiperazin-1-yl)phenyl)pyridin-3-yl)benzamide] | 94.20% | 102.49% | 96.36% | 97.22% | 90.6%
